Assay results from publication PMC10709440, “High-throughput ligand profile characterization in novel cell lines expressing seven heterologous insect olfactory receptors for the detection of volatile plant biomarkers” (Scientific Reports, 2023).
Like-named read-outs stand apart in the source and are kept apart here.

Assays:
[1] = target: T1, Drosophila OR49b (Drosophila melanogaster, UniProt Q9V6H2); experiment: cell-based; conditions: for activation at 1 µM / activation at 10 µM / activation at 100 µM: HEK293; for OR49b response (VUAA1-normalized) at 1 μM / OR49b response (VUAA1-normalized) at 10 μM / OR49b response (VUAA1-normalized) at 100 μM / Average response: OR49b cell line; for Average response: mean of biological replicates
T1 construct: expressed in transfected cells
T1 sequence (Q9V6H2 1-375): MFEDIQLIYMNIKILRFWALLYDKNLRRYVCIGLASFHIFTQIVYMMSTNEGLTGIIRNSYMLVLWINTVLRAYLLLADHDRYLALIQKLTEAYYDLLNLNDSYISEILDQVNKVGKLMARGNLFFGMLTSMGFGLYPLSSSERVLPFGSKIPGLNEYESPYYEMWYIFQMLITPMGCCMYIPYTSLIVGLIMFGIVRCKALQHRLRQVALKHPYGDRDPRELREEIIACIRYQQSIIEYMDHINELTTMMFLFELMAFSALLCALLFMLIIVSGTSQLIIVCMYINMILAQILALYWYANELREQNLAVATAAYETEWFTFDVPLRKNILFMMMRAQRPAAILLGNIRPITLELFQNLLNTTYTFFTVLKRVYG
T1 sequence (Q9VNB5 1-486 partner): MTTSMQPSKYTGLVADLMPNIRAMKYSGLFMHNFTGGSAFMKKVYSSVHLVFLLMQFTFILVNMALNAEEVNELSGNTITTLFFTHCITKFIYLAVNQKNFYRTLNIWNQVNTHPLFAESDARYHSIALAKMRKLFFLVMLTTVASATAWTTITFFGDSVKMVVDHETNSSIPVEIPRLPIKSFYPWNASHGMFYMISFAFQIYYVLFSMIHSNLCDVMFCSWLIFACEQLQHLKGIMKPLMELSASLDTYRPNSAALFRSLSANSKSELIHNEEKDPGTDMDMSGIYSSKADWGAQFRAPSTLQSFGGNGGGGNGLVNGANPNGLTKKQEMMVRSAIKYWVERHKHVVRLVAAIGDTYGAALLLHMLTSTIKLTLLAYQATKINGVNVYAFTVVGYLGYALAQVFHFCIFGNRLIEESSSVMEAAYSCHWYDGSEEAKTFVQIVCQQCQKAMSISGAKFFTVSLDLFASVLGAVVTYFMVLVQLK
In short: (§1)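 HEK293 lines stably expressing each Drosophila OR with GCaMP6, doxycycline-induced (1 μg/mL) 48 or 72 h. Fluorescence recorded 5 s baseline then 30 s after VOC injection at pH 7.3; ΔF=(FMAX−F0)/F0, normalized to 50 µM VUAA1 response per line, triplicate wells averaged; concentration series 0.01–100 μM.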

[2] = target: T2, Drosophila OR71a (Drosophila melanogaster, UniProt Q9VUK5); experiment: Calcium ion fluorescence (GCaMP6) assay, OR71a stable HEK293 cell line; assay type: cell-based; conditions: for OR71a response (VUAA1-normalized) at 1 μM / OR71a response (VUAA1-normalized) at 10 μM / OR71a response (VUAA1-normalized) at 100 μM / Average response: OR71a cell line; for Average response: VUAA1-normalized response, mean of biological replicates; for activation at 1 µM / activation at 10 µM / activation at 100 µM: HEK293, read-out: OR71a response (VUAA1-normalized response)
T2 construct: expressed in transfected cells
T2 sequence (Q9VUK5 1-378): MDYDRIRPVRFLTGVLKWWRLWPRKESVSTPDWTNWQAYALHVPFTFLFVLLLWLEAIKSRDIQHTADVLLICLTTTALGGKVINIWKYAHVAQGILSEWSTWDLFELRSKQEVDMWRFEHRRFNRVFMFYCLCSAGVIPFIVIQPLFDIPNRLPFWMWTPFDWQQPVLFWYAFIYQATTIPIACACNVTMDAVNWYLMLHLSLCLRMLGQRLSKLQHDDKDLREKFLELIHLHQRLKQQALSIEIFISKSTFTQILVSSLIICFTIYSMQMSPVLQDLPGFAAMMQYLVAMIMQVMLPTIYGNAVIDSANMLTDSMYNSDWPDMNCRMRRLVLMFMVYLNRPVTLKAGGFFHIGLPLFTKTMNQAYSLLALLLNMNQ
T2 sequence (Q9VNB5 1-486 partner): T1 sequence (Q9VNB5 1-486 partner)
In short: as §1

[3] = ligand concentration 1 (unit not given), threshold 0.05, below shown as 0
[4] = ligand concentration 10 (unit not given), threshold 0.05, below shown as 0
[5] = ligand concentration 100 (unit not given), threshold 0.05, below shown as 0
[6] = concentration 1, normalized fluorescence change, values below 0.05 threshold given as 0
[7] = concentration 10, normalized fluorescence change, values below 0.05 threshold given as 0
[8] = concentration 100, normalized fluorescence change, values below 0.05 threshold given as 0
[9] = VOC concentration 1 μM, read-out: OR49b response (VUAA1-normalized response)
[10] = VOC concentration 10 μM, read-out: OR49b response (VUAA1-normalized response)
[11] = VOC concentration 100 μM, read-out: OR49b response (VUAA1-normalized response)

SMILES | OR49b response (VUAA1-normalized) at 1 μM ([1]; VOC concentration 1 μM) | OR49b response (VUAA1-normalized) at 10 μM ([1]; VOC concentration 10 μM) | OR49b response (VUAA1-normalized) at 100 μM ([1]; VOC concentration 100 μM) | Average response ([1]; odorant cc. 1 µM) | Average response ([1]; odorant cc. 10 µM) | Average response ([1]; odorant cc. 100 µM) | OR71a response (VUAA1-normalized) at 1 μM ([2]; VOC concentration 1 μM) | OR71a response (VUAA1-normalized) at 10 μM ([2]; VOC concentration 10 μM) | OR71a response (VUAA1-normalized) at 100 μM ([2]; VOC concentration 100 μM) | Average response ([2]; cc. 1 µM) | Average response ([2]; cc. 10 µM) | Average response ([2]; cc. 100 µM) | DF norm AVERAGE OR49b [1] | DF norm AVERAGE OR71a [2, 6] | DF norm AVERAGE OR71a [2, 7] | DF norm AVERAGE OR71a [2, 8] | also measured
Cc1ccccc1C [o-xylene] | 0.00 | 0.09 | 0.64 | 0.00 | 0.09 | 0.64 | 0.00 | 0.00 | 0.00 | 0.00 | 0.00 | 0.00 |  |  |  |  | activation at 1 µM ([1]; 1 μM VOC, 50 μM VUAA1 = 1, read-out: OR49b Average response (VUAA1-normalized)): 0%; activation at 10 µM ([1]; 10 μM VOC, 50 μM VUAA1 = 1, read-out: OR49b Average response (VUAA1-normalized)): 9%; activation at 100 µM ([1]; 100 μM VOC, 50 μM VUAA1 = 1, read-out: OR49b Average response (VUAA1-normalized)): 64%; DF norm AVERAGE OR49b [1, 3]: 0; DF norm AVERAGE OR49b [1, 4]: 0.08728; DF norm AVERAGE OR49b [1, 5]: 0.6438; DF norm AVERAGE OR71a [2, 3]: 0; DF norm AVERAGE OR71a [2, 4]: 0; DF norm AVERAGE OR71a [2, 5]: 0
C=C(C)[C@H]1CC=C(C)CC1 [(R)-(+)-limonene] |  |  |  | 0.00 | 0.00 | 0.0168 |  |  |  | 0.0368 | 0.00 | 0.00 | 0 | 0 | 0 | 0 | OR49b response (VUAA1-normalized response) ([1]; VOC concentration 1 μM): 0.00; OR49b response (VUAA1-normalized response) ([1]; VOC concentration 10 μM): 0.00; OR49b response (VUAA1-normalized response) ([1]; VOC concentration 100 μM): 0.00; OR71a response (VUAA1-normalized response) ([2]; VOC concentration 1 μM): 0.00; OR71a response (VUAA1-normalized response) ([2]; VOC concentration 10 μM): 0.00; OR71a response (VUAA1-normalized response) ([2]; VOC concentration 100 μM): 0.00
CCCCC(C)=O [2-hexanone] |  |  |  | 0.00 | 0.00 | 0.00 |  |  |  | 0.08 | 0.00 | 0.00 | 0 | 0.08158 | 0 | 0 | activation at 1 µM [1, 9]: 0%; activation at 10 µM [1, 10]: 0%; activation at 100 µM [1, 11]: 0%; activation at 1 µM [2]: 8%; activation at 10 µM [2]: 0%; activation at 100 µM [2]: 0%
CCCCCC(C)=O [2-heptanone] |  |  |  | 0.00 | 0.00 | 0.02 |  |  |  | 0.08 | 0.12 | 0.05 | 0 | 0.08012 | 0.1157 | 0.05175 | activation at 1 µM [1, 9]: 0%; activation at 10 µM [1, 10]: 0%; activation at 100 µM [1, 11]: 0%; activation at 1 µM [2]: 8%; activation at 10 µM [2]: 12%; activation at 100 µM [2]: 5%
CC/C=C\CCO [Z-3-hexenol] | 0.00 | 0.00 | 0.00 |  |  |  | 0.00 | 0.00 | 0.00 |  |  |  |  |  |  |  | 
Cc1ccc(C(C)C)cc1 [p-cymene] | 0.00 | 0.00 | 0.00 | 0.00 | 0.00 | 0.00 | 0.00 | 0.00 | 0.00 | 0.00 | 0.023 | 0.00 |  |  |  |  | DF norm AVERAGE OR49b [1, 3]: 0; DF norm AVERAGE OR49b [1, 4]: 0; DF norm AVERAGE OR49b [1, 5]: 0; DF norm AVERAGE OR71a [2, 3]: 0; DF norm AVERAGE OR71a [2, 4]: 0; DF norm AVERAGE OR71a [2, 5]: 0
CC/C=C\CCO [E-3-hexenol] |  |  |  |  |  |  |  |  |  |  |  |  |  |  |  |  | OR49b response (VUAA1-normalized response) ([1]; VOC concentration 1 μM): 0.00; OR49b response (VUAA1-normalized response) ([1]; VOC concentration 10 μM): 0.00; OR49b response (VUAA1-normalized response) ([1]; VOC concentration 100 μM): 0.08; OR71a response (VUAA1-normalized response) ([2]; VOC concentration 1 μM): 0.00; OR71a response (VUAA1-normalized response) ([2]; VOC concentration 10 μM): 0.00; OR71a response (VUAA1-normalized response) ([2]; VOC concentration 100 μM): 0.00
